Reference: patent US10562909B2, “Fused quadracyclic compounds, compositions and uses thereof” (Tabomedex Biosciences, LLC, priority 2016, dated 2020)

The compounds below were run against MAPKAPK2 (Homo sapiens, UniProt P49137) (assay: MK2 Enzymatic Assay). Details: 0.5 nM MAPKAPK2, 3 μM ATP, 2 μM Ser/Thr4 peptide, 23° C., values given as concentration bins.
Type: biochemical
Procedure: Briefly, 5 μL of 2× (4 μM) 100% phosphorylation peptide was delivered into the control wells of a 384-well assay plate. 5 μL of 2× (1 nM) MAPKAPK2 and 2× peptide (4 μM) mixture in assay buffer was dispensed to remaining columns of assay plate using Eppendorf electronic multiple channel pipette. The assay plate was incubated for 20 minutes. 5 μL of 2× ATP (6 μM) in assay buffer was dispensed to each well and then the assay plate was lightly centrifuged. The assay plate was incubated for an additional 120 minutes.
5 μL of development reagent A was dispensed to all wells using Eppendorf electronic multiple channel pipette. After incubating the development reaction for 120 min, plates were read on a Perkin Elmer Envision instrument.
Percent phosphorylation was calculated using the following formula:
[formula] Where • C100%=Average Coumarin emission signal of the 100% Phos. Control • C0%=Average Coumarin emission signal of the 0% Phos. Control • F100%=Average Fluorescein emission signal of the 100% Phos. Control • F0%=Average Flurescein emission signal of the 0% Phos. Control

Chain of MAPKAPK2 (P49137 whole entry, species assumed): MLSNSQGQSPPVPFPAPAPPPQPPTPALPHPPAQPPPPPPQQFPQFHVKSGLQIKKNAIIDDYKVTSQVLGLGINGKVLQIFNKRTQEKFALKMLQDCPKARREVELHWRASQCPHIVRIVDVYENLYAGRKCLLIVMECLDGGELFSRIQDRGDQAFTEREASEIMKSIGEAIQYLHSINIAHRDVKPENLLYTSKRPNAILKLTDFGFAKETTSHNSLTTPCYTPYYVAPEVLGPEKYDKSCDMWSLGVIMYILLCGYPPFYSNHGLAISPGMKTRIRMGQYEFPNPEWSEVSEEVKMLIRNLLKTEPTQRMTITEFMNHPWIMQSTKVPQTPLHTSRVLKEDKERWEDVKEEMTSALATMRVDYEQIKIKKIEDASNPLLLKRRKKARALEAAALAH

Row | SMILES | IC50 [nM]
1 | CC(C)[C@H](CO)NC[C@H]1CCN(c2ccc3c(c2)Cn2cc(-c4ccc(F)cc4)cc2-c2nccn2-3)C1 [Compound 358, (R)-2-((((R)-1-(12-(4-fluorophenyl)-9H-benzo[e]imidazo[2,1-c]pyrrolo[1,2-a][1,4]diazepin-7-yl)pyrrolidin-3-yl)methyl)amino)-3-methylbutan-1-ol] | < 50
2 | C[C@@H](CO)N(C)C1CCN(c2ccc3c(c2)Cn2cc(-c4ccc(C#N)cc4)cc2-c2nncn2-3)CC1 [Compound 104, (S)-4-(7-(4-((1-hydroxypropan-2-yl)(methyl)amino)piperidin-1-yl)-9H-benzo[e]pyrrolo[1,2-a][1,2,4]triazolo[3,4-c][1,4]diazepin-12-yl)benzonitrile] | 100 to 200
3 | CN(C)C1CCN(c2ccc3c(c2)Cn2cc(-c4ccc(F)cc4)cc2-c2ncnn2-3)CC1 [Compound 428, 1-(12-(4-fluorophenyl)-9H-benzo[e]pyrrolo[1,2-a][1,2,4]triazolo[5,1-c][1,4]diazepin-7-yl)-N,N-dimethylpiperidin-4-amine] | 50 to 100
4 | CN(C)C[C@@H]1CCN(c2cc3c(cn2)-n2cnnc2-c2cc(-c4ccc(C#N)cc4)cn2C3)C1 [Compound 317, (S)-4-(7-(3-((dimethylamino)methyl)pyrrolidin-1-yl)-9H-pyrido[3,4-e]pyrrolo[1,2-a][1,2,4]triazolo[3,4-c][1,4]diazepin-12-yl)benzonitrile] | 100 to 200
5 | CN(C)C[C@H]1CCN(c2ccc3c(c2)Cn2cc(-c4ccc(C#N)cc4)cc2-c2ncnn2-3)C1 [Compound 255, (R)-4-(7-(3-((dimethylamino)methyl)pyrrolidin-1-yl)-9H-benzo[e]pyrrolo[1,2-a][1,2,4]riazolo[5,1-c][1,4]diazepin-12-yl)benzonitrile] | < 50
6 | OC[C@H]1CN(c2ccc3c(c2)Cn2cc(-c4ccc(F)cc4)cc2-c2nccn2-3)C[C@@H]1O [Compound 484, (3R,4R)-1-(12-(4-fluorophenyl)-9H-benzo[e]imidazo[2,1-c]pyrrolo[1,2-a][1,4]diazepin-7-yl)-4-(hydroxymethyl)pyrrolidin-3-ol] | 50 to 100
7 | CN(C)[C@H]1CN(c2ccc3c(c2)Cn2cc(-c4ccc(F)cc4)cc2-c2nccn2-3)C[C@@H]1O [Compound 352, (3S,4S)-4-(dimethylamino)-1-(12-(4-fluorophenyl)-9H-benzo[e]imidazo[2,1-c]pyrrolo[1,2-a] [1,4]diazepin-7-yl)pyrrolidin-3-ol] | < 50
8 | CN(C)C[C@@H]1CN(c2ccc3c(c2)Cn2cc(-c4ccc(F)cc4)cc2-c2cnnn2-3)C[C@H]1O [Compound 511, (3S,4R)-4-((dimethylamino)methyl)-1-(5-(4-fluorophenyl)-8H-benzo[e]pyrrolo[1,2-a][1,2,3]triazolo[5,1-c][1,4]diazepin-10-yl)pyrrolidin-3-ol] | < 50
9 | N#Cc1ccc(-c2cc3n(c2)Cc2cc(N4CC5(CCNC5)C4)ccc2-n2ncnc2-3)cc1 [Compound 258, 4-(7-(2,6-diazaspiro[3.4]octan-2-yl)-9H-benzo[e]pyrrolo[1,2-a][1,2,4]triazolo[5,1-c][1,4]diazepin-12-yl)benzonitrile] | 50 to 100
10 | CC(C)[C@@H](CO)NC[C@H]1CCN(c2ccc3c(c2)Cn2cc(-c4ccc(F)cc4)cc2-c2nccn2-3)C1 [Compound 359, (S)-2-((((R)-1-(12-(4-fluorophenyl)-9H-benzo[e]imidazo[2,1-c]pyrrolo[1,2-a][1,4]diazepin-7-yl)pyrrolidin-3-yl)methyl)amino)-3-methylbutan-1-ol] | < 50
11 | CN(C)C[C@@H]1CCN(c2ccc3c(c2)Cn2cc(-c4ccc(C#N)cc4)cc2-c2ncnn2-3)C1 [Compound 254, (S)-4-(7-(3-((dimethylamino)methyl)pyrrolidin-1-yl)-9H-benzo[e]pyrrolo[1,2-a][1,2,4]triazolo[5,1-c][1,4]diazepin-12-yl)benzonitrile] | 50 to 100
12 | N#Cc1ccc(-c2cc3n(c2)Cc2cc(N4CC[C@@H](CN5CCC(O)CC5)C4)ccc2-n2cnnc2-3)cc1 [Compound 110, (S)-4-(7-(3-((4-hydroxypiperidin-1-yl)methyl)pyrrolidin-1-yl)-9H-benzo[e]pyrrolo[1,2-a] [1,2,4]triazolo[3,4-c][1,4]diazepin-12-yl)benzonitrile] | < 50
13 | CN(C)C[C@@H]1CCN(c2ccc3c(c2)Cn2cc(-c4ccc(F)cc4)cc2-c2ncnn2-3)C1 [Compound 413, (S)-1-(1-(12-(4-fluorophenyl)-9H-benzo[e]pyrrolo[1,2-a][1,2,4]triazolo[5,1-c][1,4]diazepin-7-yl)pyrrolidin-3-yl)-N,N-dimethylmethanamine] | < 50
14 | CN1CC2(CCN(c3ccc4c(c3)Cn3cc(-c5ccc(F)cc5)cc3-c3ncnn3-4)C2)C1 [Compound 412, 12-(4-fluorophenyl)-7-(2-methyl-2,6-diazaspiro[3.4]octan-6-yl)-9H-benzo[e]pyrrolo[1,2-a][1,2,4]triazolo[5,1-c][1,4]diazepine] | < 50
15 | CC(C)(NCC1CCN(c2ccc3c(c2)Cn2cc(-c4ccc(F)cc4)cc2-c2nccn2-3)C1)C(=O)O (stereo not drawn) [Compound 479, 2-(((1-(12-(4-fluorophenyl)-9H-benzo[e]imidazo[2,1-c]pyrrolo[1,2-a][1,4]diazepin-7-yl)pyrrolidin-3-yl)methyl)amino)-2-methylpropanoic acid] | 100 to 200
16 | CNC[C@H]1CN(c2ccc3c(c2)Cn2cc(-c4ccc(F)cc4)cc2-c2ncnn2-3)C[C@H]1F [Compound 497, 1-((3S,4S)-4-fluoro-1-(12-(4-fluorophenyl)-9H-benzo[e]pyrrolo[1,2-a][1,2,4]triazolo[5,1-c] [1,4]diazepin-7-yl)pyrrolidin-3-yl)-N-methylmethanamine] | < 50
17 | N#Cc1ccc(-c2cc3n(c2Cl)Cc2cc(N4CC[C@@H](CN)C4)ccc2-n2cnnc2-3)cc1 [Compound 169, (S)-4-(7-(3-(aminomethyl)pyrrolidin-1-yl)-11-chloro-9H-benzo[e]pyrrolo[1,2-a][1,2,4]tri-azolo[3,4-c][1,4]diazepin-12-yl)benzonitrile] | < 50
18 | CN[C@@H]1CN(c2ccc3c(c2)Cn2cc(-c4ccc(F)cc4)cc2-c2nccn2-3)C[C@H]1CO (relative stereo) [Compound 491, ((Trans)-1-(12-(4-fluorophenyl)-9H-benzo[e]imidazo[2,1-c]pyrrolo[1,2-a][1,4]diazepin-7-yl)-4-(methylamino)pyrrolidin-3-yl)methanol] | < 50
19 | C[C@H](CO)NC[C@H]1CCN(c2ccc3c(c2)Cn2cc(-c4ccc(F)cc4)cc2-c2ncnn2-3)C1 [Compound 420, (R)-2-((((R)-1-(12-(4-fluorophenyl)-9H-benzo[e]pyrrolo[1,2-a][1,2,4]triazolo[5,1-c][1,4]diazepin-7-yl)pyrrolidin-3-yl)methyl)amino)propan-1-ol] | < 50
20 | CN(C)[C@H]1CN(c2ccc3c(n2)Cn2cc(-c4ccc(C#N)cc4)cc2-c2nccn2-3)C[C@H]1O [Compound 302, 4-(7-((3S,4R)-3-(dimethylamino)-4-hydroxypyrrolidin-1-yl)-9H-imidazo[2,1-c]pyrido[3,2-e]pyrrolo[1,2-a][1,4]diazepin-12-yl)benzonitrile] | 50 to 100
21 | CN(C)[C@@H]1CN(c2ccc3c(c2)Cn2cc(-c4ccc(F)cc4)cc2-c2ncnn2-3)C[C@H]1CO (relative stereo) [Compound 504, (Trans-4-(dimethylamino)-1-(12-(4-fluorophenyl)-9H-benzo[e]pyrrolo[1,2-a][1,2,4]triazolo[5,1-c][1,4]diazepin-7-yl)pyrrolidin-3-yl)methanol] | 100 to 200
22 | OC1CN(c2ccc3c(c2)Cn2cc(-c4ccc(F)cc4)cc2-c2nccn2-3)CC1CN1CCC1 (single isomer, unassigned) [Compound 468] | < 50
23 | CN[C@H]1CCN(c2ccc3c(c2)Cn2c(cc(-c4ccc(C#N)cc4)c2Cl)-c2nncn2-3)C1 [Compound 167, (S)-4-(11-chloro-7-(3-(methylamino)pyrrolidin-1-yl)-9H-benzo[e]pyrrolo[1,2-a][1,2,4]tri-azolo[3,4-c][1,4]diazepin-12-yl)benzonitrile] | 50 to 100
24 | O[C@@H]1CN(c2ccc3c(c2)Cn2cc(-c4ccc(F)cc4)cc2-c2nccn2-3)C[C@H]1CN1CCCC1 [Compound 471, (3S,4R)-1-(12-(4-fluorophenyl)-9H-benzo[e]imidazo[2,1-c]pyrrolo[1,2-a][1,4]diazepin-7-yl)-4-(pyrrolidin-1-ylmethyl)pyrrolidin-3-ol] | < 50
25 | O[C@H]1CN(c2ccc3c(c2)Cn2cc(-c4ccc(F)cc4)cc2-c2nccn2-3)C[C@@H]1CNC1CC1 [Compound 473, (3R,4S)-4-((cyclopropylamino)methyl)-1-(12-(4-fluorophenyl)-9H-benzo[e]imidazo[2,1-c]pyrrolo[1,2-a][1,4]diazepin-7-yl)pyrrolidin-3-ol] | < 50
26 | OC1CCN(C[C@H]2CCN(c3ccc4c(c3)Cn3cc(-c5ccccc5)cc3-c3nncn3-4)C2)CC1 [Compound 459, (R)-1-((1-(12-phenyl-9H-benzo[e]pyrrolo[1,2-a][1,2,4]triazolo[3,4-c][1,4]diazepin-7-yl)pyrrolidin-3-yl)methyl)piperidin-4-ol] | 100 to 200
27 | CN[C@H]1CCN(c2ccc3c(c2)Cn2cc(-c4ccc(F)cc4)cc2-c2ncnn2-3)C1 [Compound 410, (S)-1-(12-(4-fluorophenyl)-9H-benzo[e]pyrrolo[1,2-a][1,2,4]triazolo[5,1-c][1,4]diazepin-7-yl)-N-methylpyrrolidin-3-amine] | 50 to 100
